Results published in ChEMBL document CHEMBL3217427, “Identification of 3-aminothieno[2,3-b]pyridine-2-carboxamides and 4-aminobenzothieno[3,2-d]pyrimidines as LIMK1 inhibitors” (Medchemcomm, 2011).

Target: T1, LIM domain kinase 1 (Homo sapiens, UniProt P53667)
Assay: Inhibition of LIMK1 (unknown origin) using cofilin-2 as substrate at 30 uM after 60 mins by Kinase-Glo assay relative to control
Target sequence in this assay (P53667 whole entry, looked up, the tested form may be a part): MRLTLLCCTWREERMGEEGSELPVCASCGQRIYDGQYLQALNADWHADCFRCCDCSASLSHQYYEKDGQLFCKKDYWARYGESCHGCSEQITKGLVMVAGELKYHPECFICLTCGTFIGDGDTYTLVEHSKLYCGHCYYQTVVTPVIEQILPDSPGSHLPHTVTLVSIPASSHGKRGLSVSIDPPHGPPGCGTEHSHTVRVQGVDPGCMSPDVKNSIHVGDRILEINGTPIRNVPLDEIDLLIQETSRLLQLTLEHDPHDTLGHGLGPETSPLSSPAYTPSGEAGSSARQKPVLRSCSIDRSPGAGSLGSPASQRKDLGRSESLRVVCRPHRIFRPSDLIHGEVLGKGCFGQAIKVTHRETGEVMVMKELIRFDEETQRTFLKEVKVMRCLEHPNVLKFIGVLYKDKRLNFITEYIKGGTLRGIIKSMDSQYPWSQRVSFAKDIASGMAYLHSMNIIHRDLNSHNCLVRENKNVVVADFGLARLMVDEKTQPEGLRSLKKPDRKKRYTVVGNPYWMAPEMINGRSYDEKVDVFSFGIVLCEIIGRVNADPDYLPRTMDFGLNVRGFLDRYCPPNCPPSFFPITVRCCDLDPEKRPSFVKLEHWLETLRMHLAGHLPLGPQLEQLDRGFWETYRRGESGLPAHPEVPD

| inhibition [%] | Compound |
| --- | --- |
| 40 | NC(=O)c1sc2ncccc2c1N |
| 15 | Nc1c(C(=O)Nc2ccccc2)sc2ncccc12 |
| 79 | Cc1ccnc2sc(C(N)=O)c(N)c12 |
| 0 | Nc1c(C(=O)N2CCOCC2)sc2ncccc12 |
| 67 | CN(C)c1ccnc2sc(C(N)=O)c(N)c12 |
| 16 | NC(=O)c1sc2ncc3c(c2c1N)CCCC3 |
| 0 | Nc1c(C(=O)Nc2ccccc2)sc2nccc(Nc3ccccc3)c12 |
| 2 | Nc1c(C(=O)NC2CCCCC2)sc2ncccc12 |
| 50 | NC(=O)c1sc2nc3c(c(-c4cccs4)c2c1N)CCC3 |
| 98 | NC(=O)c1sc2nccc(Nc3ccccc3)c2c1N |

Target: T1, LIM domain kinase 1
Assay: Inhibition of LIMK1 (unknown origin) using cofilin-2 as substrate after 60 mins by Kinase-Glo assay
Target sequence in this assay (P53667 whole entry, the tested form may be a part): as the sequence (P53667 whole entry, looked up, the tested form may be a part) above

| Compound | IC50 [µM] |
| --- | --- |
| NNC(=O)c1sc2ncccc2c1N | > 100 |
| Nc1c(C(=O)O)sc2ccccc12 | > 100 |
| Nc1ncnc2c1sc1nccnc12 | > 100 |
| CCOC(=O)c1sc2ccccc2c1N | > 100 |
| CNC(=O)c1sc2ncccc2c1N | > 100 |
| Nc1c(C(=O)O)sc2ncccc12 | > 100 |
| CN(C)C(=O)c1sc2ncccc2c1N | > 100 |
| NC(=O)c1sc2cccnc2c1N | 92 |
| NC(=O)c1sc2ccccc2c1O | > 100 |
| NC(=O)c1cc2ccccc2s1 | > 100 |
| NC(=O)c1oc2ccccc2c1N | > 100 |
| Nc1nc(-c2ccccc2)nc2c1sc1ncccc12 | > 50 |

Continued, values first:

| IC50 [µM] | Compound |
| --- | --- |
| 5.5 | Nc1ncnc2c1sc1cccc(-c3ccccc3)c12 |
| 1.3 | NC(=O)c1sc2nc(-c3ccc4c(c3)OCCO4)cc(C(F)(F)F)c2c1N |
| 43 | Nc1ncnc2c1sc1cccnc12 |
| 44 | COc1ccc(-c2cc(-c3ccccc3)nc3sc(C(N)=O)c(N)c23)cc1 |
| 6.1 | Nc1ncnc2c1sc1c(-c3ccccc3)cccc12 |
| 11 | Cc1ccnc2sc(C(N)=O)c(N)c12 |
| 15 | Nc1ncnc2c1oc1ccccc12 |
| 2 | NC(=O)c1sc2nc(-c3ccccc3)cc(-c3ccco3)c2c1N |
| 1.6 | NC(=O)c1sc2nc(-c3cccs3)cc(C(F)(F)F)c2c1N |
| 3 | NC(=O)c1sc2nc(-c3ccccc3)ccc2c1N |
| 0.7 | Nc1ncnc2c1sc1nc(-c3ccccc3)ccc12 |
| 56 | Cc1ccc2c(N)c(C(N)=O)sc2n1 |
| 2.8 | NC(=O)c1sc2nc(-c3ccccc3)c3c(c2c1N)CCCC3 |
| 5.7 | Nc1ncnc2c1sc1ccc(-c3ccccc3)cc12 |
| 30 | NC(=O)c1sc2nc(Cc3ccccc3)cc(C(F)(F)F)c2c1N |
| 41 | Cc1ccc(-c2cc(C(F)(F)F)c3c(N)c(C(N)=O)sc3n2)o1 |
| 9 | Cc1cc(C)c2c(N)c(C(N)=O)sc2n1 |
| 34 | CNc1c(C(N)=O)sc2ccccc12 |
| 37 | Cc1cc(-c2ccc(Cl)cc2)c2c(N)c(C(N)=O)sc2n1 |
| 43 | Cc1nc(N)c2sc3ncccc3c2n1 |
| 7.1 | NC(=O)c1sc2nc(-c3cccnc3)ccc2c1N |
| 4 | Nc1ncnc2c1[nH]c1ccccc12 |
